Earlier results, collected in patent publication US20230285287A1, “PHARMACEUTICAL COMPOSITIONS” (DOUGLAS PHARMACEUTICALS LIMITED, priority 2019, published 2023).
Entries after “also recorded” stand apart in the source; their conditions may differ.

Settings: known from the literature (Donato et al.)

CC(C)c1nc(CN(C)C(=O)N[C@H](C(=O)N[C@@H](Cc2ccccc2)C[C@H](O)[C@H](Cc2ccccc2)NC(=O)OCc2cncs2)C(C)C)cs1 [Ritonavir, 1,3-thiazol-5-ylmethyl N-[(2S,3S,5S)-3-hydroxy-5-[[(2S)-3-methyl-2-[[methyl-[(2-propan-2-yl-1,3-thiazol-4-yl)methyl]carbamoyl]amino]butanoyl]amino]-1,6-diphenylhexan-2-yl]carbamate]
chemical stability / degradation route: thermolytically driven; also recorded: particularly prone to hydrolysis; also recorded: oxygen labile
